In patent publication US7371766B2, “Curcumin analogs with anti-tumor and anti-angiogenic properties” (Emory University, priority 1999, dated 2008):

Key:
LOX IMVI = conditions: read-out: Median Growth Inhibitory Concentration (GI50), Melanoma, 48 hours
SF-268 = conditions: read-out: Median Growth Inhibitory Concentration (GI50); SF-268, CNS Cancer; 48 hours
RPMI-8226 = conditions: read-out: Median Growth Inhibitory Concentration (GI50); RPMI-8226, Leukemia; 48 hours
HOP-92 = conditions: read-out: Median Growth Inhibitory Concentration (GI50); HOP-92, Non-Small Cell Lung Cancer; 48 hours
SF-295 = conditions: read-out: Median Growth Inhibitory Concentration (GI50); SF-295, CNS Cancer; 48 hours
KM12 = conditions: read-out: Median Growth Inhibitory Concentration (GI50); KM12, Colon Cancer; 48 hours
OVCAR-8 = conditions: read-out: Median Growth Inhibitory Concentration (GI50); OVCAR-8, Ovarian Cancer; 48 hours
RXF 393 = conditions: read-out: Median Growth Inhibitory Concentration (GI50); RXF 393, Renal Cancer; 48 hours
MDA-N = conditions: read-out: Median Growth Inhibitory Concentration (GI50), Breast Cancer, 48 hours
EKVX = conditions: read-out: Median Growth Inhibitory Concentration (GI50), Non-Small Cell Lung Cancer, 48 hours
MDA-MB-435 = conditions: read-out: Median Growth Inhibitory Concentration (GI50); MDA-MB-435, Breast Cancer; 48 hours
SK-MEL-5 = conditions: read-out: Median Growth Inhibitory Concentration (GI50); SK-MEL-5, Melanoma; 48 hours
COLO 205 = conditions: read-out: Median Growth Inhibitory Concentration (GI50); COLO 205, Colon Cancer; 48 hours
NCI/ADR-RES = conditions: read-out: Median Growth Inhibitory Concentration (GI50), Breast Cancer, 48 hours
HCC-2998 = conditions: read-out: Median Growth Inhibitory Concentration (GI50); HCC-2998, Colon Cancer; 48 hours
UACC-62 = conditions: read-out: Median Growth Inhibitory Concentration (GI50); UACC-62, Melanoma; 48 hours
SK-OV-3 = conditions: read-out: Median Growth Inhibitory Concentration (GI50); SK-OV-3, Ovarian Cancer; 48 hours
HOP-62 = conditions: read-out: Median Growth Inhibitory Concentration (GI50); HOP-62, Non-Small Cell Lung Cancer; 48 hours
K-562 = conditions: read-out: Median Growth Inhibitory Concentration (GI50); K-562, Leukemia; 48 hours
TK-10 = conditions: read-out: Median Growth Inhibitory Concentration (GI50); TK-10, Renal Cancer; 48 hours
SNB-19 = conditions: read-out: Median Growth Inhibitory Concentration (GI50); SNB-19, CNS Cancer; 48 hours
HL-60 (TB) = conditions: read-out: Median Growth Inhibitory Concentration (GI50), Leukemia, 48 hours
786-0 = conditions: read-out: Median Growth Inhibitory Concentration (GI50); 786-0, Renal Cancer; 48 hours
SF-539 = conditions: read-out: Median Growth Inhibitory Concentration (GI50); SF-539, CNS Cancer; 48 hours
NCI-H23 = conditions: read-out: Median Growth Inhibitory Concentration (GI50); NCI-H23, Non-Small Cell Lung Cancer; 48 hours
SK-MEL-28 = conditions: read-out: Median Growth Inhibitory Concentration (GI50); SK-MEL-28, Melanoma; 48 hours
NCI-H226 = conditions: read-out: Median Growth Inhibitory Concentration (GI50); NCI-H226, Non-Small Cell Lung Cancer; 48 hours
OVCAR-4 = conditions: read-out: Median Growth Inhibitory Concentration (GI50); OVCAR-4, Ovarian Cancer; 48 hours
UACC-257 = conditions: read-out: Median Growth Inhibitory Concentration (GI50); UACC-257, Melanoma; 48 hours
SK-MEL-2 = conditions: read-out: Median Growth Inhibitory Concentration (GI50); SK-MEL-2, Melanoma; 48 hours
PC-3 = conditions: read-out: Median Growth Inhibitory Concentration (GI50); PC-3, Prostate Cancer; 48 hours
CCRF-CEM = conditions: read-out: Median Growth Inhibitory Concentration (GI50), Leukemia, 48 hours

Work on “3,5-Bis(2-hydroxybenzylidene)-sulfone [EF11]” yielded a GI50 (LOX IMVI) of 40.3 µM, a GI50 (SF-268) of 24.6 µM and a GI50 (RPMI-8226) of 18.2 µM. For the same molecule, the GI50 (HOP-92) was 23.5 µM, the GI50 (SF-295) was 53.8 µM and the GI50 (KM12) was 19.1 µM. It also gave a GI50 (OVCAR-8) of 47.1 µM, a GI50 (RXF 393) of 39 µM and a GI50 (MDA-N) of 36.9 µM. The GI50 (EKVX) was 30.6 µM, the GI50 (MDA-MB-435) was 31.4 µM and the GI50 (SK-MEL-5) was 23.2 µM. The GI50 (COLO 205) was 39.6 µM, the GI50 (NCI/ADR-RES) was 86.1 µM and the GI50 (HCC-2998) was 20.5 µM. It also gave a GI50 (UACC-62) of 21.3 µM, a GI50 (SK-OV-3) of over 100 µM and a GI50 (HOP-62) of 83.3 µM. For the same molecule, the GI50 (K-562) was 27.4 µM, the GI50 (TK-10) was 41.2 µM and the GI50 (SNB-19) was 48 µM. For the same molecule, the GI50 (HL-60 (TB)) was 21.3 µM, the GI50 (786-0) was 41.3 µM and the GI50 (SF-539) was 39.9 µM. For the same molecule, the GI50 (NCI-H23) was 35.8 µM, the GI50 (SK-MEL-28) was 42.5 µM and the GI50 (NCI-H226) was over 100 µM. It also gave a GI50 (OVCAR-4) of 28.7 µM, a GI50 (UACC-257) of 29.8 µM and a GI50 (SK-MEL-2) of 24 µM. It also gave a GI50 (PC-3) of 34.9 µM and a GI50 (CCRF-CEM) of 22 µM.

For `N.N.[Cl][Pt][Cl]` [Cisplatin, reference compound], the GI50 (LOX IMVI) was 0.3 µM, the GI50 (SF-268) was 0.2 µM and the GI50 (RPMI-8226) was 0.5 µM. The GI50 (HOP-92) was 0.6 µM, the GI50 (SF-295) was 0.3 µM and the GI50 (KM12) was 2 µM. It also gave a GI50 (OVCAR-8) of 1 µM, a GI50 (RXF 393) of 0.8 µM and a GI50 (MDA-N) of 0.8 µM. The GI50 (EKVX) was 1.6 µM, the GI50 (MDA-MB-435) was 1.6 µM and the GI50 (SK-MEL-5) was 0.5 µM. For the same molecule, the GI50 (COLO 205) was 4 µM, the GI50 (NCI/ADR-RES) was 0.8 µM and the GI50 (HCC-2998) was 0.1 µM. For the same molecule, the GI50 (UACC-62) was 0.3 µM, the GI50 (SK-OV-3) was 1.3 µM and the GI50 (HOP-62) was 0.3 µM. For the same molecule, the GI50 (K-562) was 1 µM, the GI50 (TK-10) was 1.3 µM and the GI50 (SNB-19) was 1 µM. For the same molecule, the GI50 (HL-60 (TB)) was 0.1 µM, the GI50 (786-0) was 0.3 µM and the GI50 (SF-539) was 0.4 µM. The GI50 (NCI-H23) was 0.1 µM, the GI50 (SK-MEL-28) was 0.8 µM and the GI50 (NCI-H226) was 0.8 µM. It also gave a GI50 (OVCAR-4) of 0.3 µM, a GI50 (UACC-257) of 1 µM and a GI50 (SK-MEL-2) of 1.3 µM. The GI50 (PC-3) was 1.6 µM and the GI50 (CCRF-CEM) was 0.2 µM.

For `C(=C\c1ccccc1)/S/C=C/c1ccccc1` [EF15], the GI50 (LOX IMVI) was over 100 µM, the GI50 (SF-268) was over 100 µM and the GI50 (RPMI-8226) was 49.8 µM. For the same molecule, the GI50 (HOP-92) was over 100 µM, the GI50 (SF-295) was 80.9 µM and the GI50 (KM12) was 55.7 µM. The GI50 (OVCAR-8) was over 100 µM, the GI50 (RXF 393) was 23.5 µM and the GI50 (MDA-N) was 67.8 µM. For the same molecule, the GI50 (EKVX) was 64 µM, the GI50 (MDA-MB-435) was 61.2 µM and the GI50 (SK-MEL-5) was 53.9 µM. It also gave a GI50 (COLO 205) of over 100 µM, a GI50 (NCI/ADR-RES) of over 100 µM and a GI50 (HCC-2998) of 31.6 µM. The GI50 (UACC-62) was 66.7 µM, the GI50 (SK-OV-3) was over 100 µM and the GI50 (HOP-62) was over 100 µM. For the same molecule, the GI50 (K-562) was 78.5 µM, the GI50 (TK-10) was over 100 µM and the GI50 (SNB-19) was over 100 µM. It also gave a GI50 (HL-60 (TB)) of 49.9 µM, a GI50 (786-0) of over 100 µM and a GI50 (SF-539) of over 100 µM. It also gave a GI50 (NCI-H23) of over 100 µM, a GI50 (SK-MEL-28) of 83.7 µM and a GI50 (NCI-H226) of over 100 µM. The GI50 (OVCAR-4) was over 100 µM, the GI50 (UACC-257) was 55.4 µM and the GI50 (SK-MEL-2) was 31.7 µM. For the same molecule, the GI50 (PC-3) was over 100 µM and the GI50 (CCRF-CEM) was 41.5 µM.
